Test: xn = mol fraction of the nth substance listed
Conditions: Liquid, Vibrating tube method

CC(C)O [propan-2-ol] + O=C=O
Conditions | mass density [kg/m3]
308.12 K, 5038 kPa, x2 = 0.4248 | 808.2
308.12 K, 5326 kPa, x2 = 0.4248 | 808.8
308.12 K, 5517 kPa, x2 = 0.4248 | 809.2
308.12 K, 6029 kPa, x2 = 0.4248 | 810.3
308.12 K, 6505 kPa, x2 = 0.4248 | 811.3
308.12 K, 6515 kPa, x2 = 0.4248 | 811.4
308.12 K, 6714 kPa, x2 = 0.4248 | 811.8
308.12 K, 7035 kPa, x2 = 0.4248 | 812.4
308.12 K, 7207 kPa, x2 = 0.4248 | 812.8
308.12 K, 7302 kPa, x2 = 0.9492 | 699.6
308.12 K, 7402 kPa, x2 = 0.9492 | 704.9
308.12 K, 7501 kPa, x2 = 0.4248 | 813.4
308.12 K, 7605 kPa, x2 = 0.9492 | 713.8
308.12 K, 7700 kPa, x2 = 0.4248 | 813.8
308.12 K, 7802 kPa, x2 = 0.9492 | 720.9
308.12 K, 8002 kPa, x2 = 0.9492 | 728
308.12 K, 8024 kPa, x2 = 0.4248 | 814.4
308.12 K, 8204 kPa, x2 = 0.9492 | 734.5
308.12 K, 8404 kPa, x2 = 0.9492 | 740.3
308.12 K, 8605 kPa, x2 = 0.9492 | 745.7
308.12 K, 8606 kPa, x2 = 0.4248 | 815.6
308.12 K, 8802 kPa, x2 = 0.4248 | 816
308.12 K, 8802 kPa, x2 = 0.9492 | 750.6
308.12 K, 9002 kPa, x2 = 0.4248 | 816.4
308.12 K, 9004 kPa, x2 = 0.9492 | 755.4
308.12 K, 9201 kPa, x2 = 0.9492 | 759.7
308.12 K, 9408 kPa, x2 = 0.9492 | 764
308.12 K, 9529 kPa, x2 = 0.4248 | 817.3
308.12 K, 9610 kPa, x2 = 0.9492 | 768
308.12 K, 9805 kPa, x2 = 0.9492 | 771.5
308.12 K, 9898 kPa, x2 = 0.4248 | 818
308.12 K, 10003 kPa, x2 = 0.9492 | 774.9
308.12 K, 10202 kPa, x2 = 0.9492 | 778
308.12 K, 10405 kPa, x2 = 0.9492 | 780.9
308.12 K, 10617 kPa, x2 = 0.9492 | 783.7
308.12 K, 10807 kPa, x2 = 0.9492 | 785.9
308.13 K, 7456 kPa, x2 = 0.9715 | 611.7
308.13 K, 7502 kPa, x2 = 0.9715 | 636.2
308.13 K, 7992 kPa, x2 = 0.9715 | 680.6
308.13 K, 8522 kPa, x2 = 0.9715 | 706.8
308.13 K, 8997 kPa, x2 = 0.9715 | 724.3
308.13 K, 9508 kPa, x2 = 0.9715 | 739.8
308.13 K, 10027 kPa, x2 = 0.9715 | 752.9
308.13 K, 10521 kPa, x2 = 0.9715 | 763.7
308.13 K, 11017 kPa, x2 = 0.9715 | 773.2
308.13 K, 11500 kPa, x2 = 0.9715 | 781.6
308.13 K, 12008 kPa, x2 = 0.9715 | 789.6
308.13 K, 12520 kPa, x2 = 0.9715 | 797.2
308.13 K, 13012 kPa, x2 = 0.9715 | 803.8
308.13 K, 13520 kPa, x2 = 0.9715 | 810.4
308.13 K, 14014 kPa, x2 = 0.9715 | 816.4
308.13 K, 14520 kPa, x2 = 0.9715 | 822.1
308.13 K, 15000 kPa, x2 = 0.9715 | 827.3
313.08 K, 7544 kPa, x2 = 0.7943 | 777.4
313.08 K, 7601 kPa, x2 = 0.7943 | 778.5
313.08 K, 7810 kPa, x2 = 0.7943 | 780.8
313.08 K, 8013 kPa, x2 = 0.7943 | 783
313.08 K, 8205 kPa, x2 = 0.7943 | 784.9
313.08 K, 8410 kPa, x2 = 0.7943 | 786.8
313.08 K, 8593 kPa, x2 = 0.7943 | 788.4
313.08 K, 8800 kPa, x2 = 0.7943 | 790.3
313.08 K, 8999 kPa, x2 = 0.7943 | 792.2
313.08 K, 9208 kPa, x2 = 0.7943 | 794
313.08 K, 9405 kPa, x2 = 0.7943 | 795.7
313.08 K, 9619 kPa, x2 = 0.7943 | 797.5
313.08 K, 9803 kPa, x2 = 0.7943 | 799

Reference: the NIST ThermoML archive (doi:10.1021/je700321s)
